From patent publication US10059701B2 (Merck Patent GmbH, priority 2015, dated 2018) come the findings set out here.

Structures can show the parent of a compound that is named as a salt.

In one assay the target is T1, IRAK1 (Homo sapiens, UniProt P51617).
T1 construct: His-TEV-IRAK1 (194-712); His (N); TEV cleavage site (N)
The assay is described as follows: IRAK1 enzymatic assay (ADP-Glo luminescence). The format is biochemical. To be noted: purified human recombinant His-TEV-IRAK1 (194-712). In a few lines: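 Luminescent ADP-Glo read-out of ATP turnover by purified His-TEV-IRAK1 (194-712) at 0.3 μg/ml after a 2-hour RT reaction. Compounds, serially diluted from 10 μM to 0.5 nM, were preincubated with enzyme 15 minutes in Hepes pH 7.0 buffer with MgCl2, DTT, EGTA and Triton X-100.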
Background: ADP-Glo first removes unused ATP, then detects ADP through luciferase.

In another assay the target is T2, IRAK4 (Homo sapiens, UniProt Q9NWZ3).
T2 construct: His-TEV-IRAK4 (1-460); His (N); TEV cleavage site (N)
T2 sequence (Q9NWZ3 1-460): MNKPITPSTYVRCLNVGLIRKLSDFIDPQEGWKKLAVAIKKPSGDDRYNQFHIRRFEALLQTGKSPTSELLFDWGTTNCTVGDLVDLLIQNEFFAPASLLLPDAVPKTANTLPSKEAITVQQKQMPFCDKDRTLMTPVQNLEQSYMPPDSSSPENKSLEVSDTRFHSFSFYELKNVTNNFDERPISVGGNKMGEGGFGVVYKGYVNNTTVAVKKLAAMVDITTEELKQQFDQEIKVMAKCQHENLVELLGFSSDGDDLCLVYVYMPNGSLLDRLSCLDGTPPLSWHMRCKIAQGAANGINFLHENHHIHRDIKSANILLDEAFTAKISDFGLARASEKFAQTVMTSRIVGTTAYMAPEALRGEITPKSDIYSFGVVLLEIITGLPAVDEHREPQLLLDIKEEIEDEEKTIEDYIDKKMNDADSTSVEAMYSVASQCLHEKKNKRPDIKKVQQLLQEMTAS
Put plainly: IRAK4 enzymatic assay (ADP-Glo luminescence). To be noted: purified human recombinant His-TEV-IRAK4 (1-460), ATP 2 μM. It is filed as biochemical. The procedure, abridged:
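ADP-Glo luminescence read-out after a 2 h RT kinase reaction with 2 μM ATP and 300 nM biotinylated STK1 peptide. Enzyme (His-TEV-IRAK4 1-460, 0.3 μg/ml) first incubated 15 min with serially diluted compounds (10 μM–0.5 nM) in 50 mM Hepes pH 7.0, 10 mM MgCl2, 5 mM MnCl2.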

T1 sequence (P51617 194-712): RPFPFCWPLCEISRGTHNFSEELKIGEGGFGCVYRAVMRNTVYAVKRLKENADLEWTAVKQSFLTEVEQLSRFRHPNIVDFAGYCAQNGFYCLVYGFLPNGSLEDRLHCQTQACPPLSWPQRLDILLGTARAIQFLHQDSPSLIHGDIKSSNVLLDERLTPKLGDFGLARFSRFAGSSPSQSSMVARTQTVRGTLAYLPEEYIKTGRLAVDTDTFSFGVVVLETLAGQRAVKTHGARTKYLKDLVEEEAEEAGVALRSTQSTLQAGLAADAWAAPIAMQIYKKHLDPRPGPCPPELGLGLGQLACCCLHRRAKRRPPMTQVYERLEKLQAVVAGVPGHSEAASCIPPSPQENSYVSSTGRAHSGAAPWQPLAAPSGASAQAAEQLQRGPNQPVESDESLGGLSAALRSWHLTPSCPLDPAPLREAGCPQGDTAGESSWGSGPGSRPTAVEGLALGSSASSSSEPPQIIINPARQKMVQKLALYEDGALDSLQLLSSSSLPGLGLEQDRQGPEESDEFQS

One may read the IC50 as the concentration needed to halve the response being measured. With `CC(=O)N1CCN(c2ccc3c(c2)[nH]/c(=N\C(=O)c2cccc(C(F)F)c2)n3CCCO)C(=O)C1` [Compound 110, (E)-N-(5-(4-acetyl-2-oxopiperazin-1-yl)-(1-(3-hydroxypropyl)-1H-benzo[d]imidazol-2(3H)-ylidene))-3-(difluoromethyl)benzamide], the 50% inhibitory concentration (IC50) at IRAK1 and on IRAK4 was no more than 100 nM throughout.

`CN1CCN(c2ccc3c(c2)[nH]/c(=N\C(=O)c2cccc(C(F)F)c2)n3CCCO)C(=O)C1` [Compound 111, (E)-3-(difluoromethyl)-N-(1-(3-hydroxypropyl)-5-(4-methyl-2-oxopiperazin-1-yl)-1H-benzo[d]imidazol-2(3H)-ylidene)benzamide]: the IC50 at IRAK1 was 100 to 1000 nM; on IRAK4, no more than 100 nM.

As to `O=C(/N=c1\[nH]c2cc(N3CCN(CC4CC4)CC3=O)ccc2n1CCCO)c1cccc(C(F)F)c1` [Compound 112, (E)-N-(5-(4-(cyclopropylmethyl)-2-oxopiperazin-1-yl)-1-(3-hydroxypropyl)-1H-benzo[d]imidazol-2(3H)-ylidene)-3-(difluoromethyl)benzamide], the IC50 on IRAK1 and at IRAK4 was no more than 100 nM in each case.

On to `O=C(/N=c1\[nH]c2cc(N3CCN(CC(F)(F)F)CC3=O)ccc2n1CCCO)c1cccc(C(F)F)c1` [Compound 113, (E)-3-(difluoromethyl)-N-(1-(3-hydroxypropyl)-5-(2-oxo-4-(2,2,2-trifluoroethyl)piperazin-1-yl)-1H-benzo[d]imidazol-2(3H)-ylidene)benzamide], for which the half-inhibitory concentration (IC50) at IRAK1 is 100 to 1000 nM; at IRAK4, no more than 100 nM.

As to `O=C(/N=c1\[nH]c2cc(N3CCOCC3=O)ccc2n1C1(CCO)CCCCC1)c1cccc(C(F)(F)F)c1` [Compound 114, (E)-N-(1-(1-(2-hydroxyethyl)cyclohexyl)-5-(3-oxomorpholino)-1H-benzo[d]imidazol-2(3H)-ylidene)-3-(trifluoromethyl)benzamide], the half-inhibitory concentration (IC50) at IRAK1 and on IRAK4 was greater than 1000 nM throughout.

On to `O=C(/N=c1\[nH]c2cc(N3CCOCC3=O)ccc2n1C1(CCO)CCCCC1)c1cccc(C(F)F)c1` [Compound 115, (E)-3-(difluoromethyl)-N-(1-(1-(2-hydroxyethyl)cyclohexyl)-5-(3-oxomorpholino)-1H-benzo[d]imidazol-2(3H)-ylidene)benzamide], for which the IC50 was greater than 1000 nM at IRAK1 and 100 to 1000 nM at IRAK4.

As to `O=C(/N=c1\[nH]c2cc(N3CCOCC3=O)ccc2n1C1CCCC(CO)C1)c1cccc(C(F)(F)F)c1` (centres unmarked) [Compound 120, (E)-N-(1-(3-(hydroxymethyl)cyclohexyl)-5-(3-oxomorpholino)-1H-benzo[d]imidazol-2(3H)-ylidene)-3-(trifluoromethyl)benzamide], the half-maximal inhibitory concentration (IC50) on IRAK1 was 100 to 1000 nM; at IRAK4, no more than 100 nM.

For the molecule `O=C(/N=c1\[nH]c2cc(N3CCOCC3=O)ccc2n1C1CCCC(CO)C1)c1cccc(C(F)F)c1` (centres unmarked) [Compound 121, (E)-3-(difluoromethyl)-N-(1-(3-(hydroxymethyl)cyclohexyl)-5-(3-oxomorpholino)-1H-benzo[d]imidazol-2(3H)-ylidene)benzamide], the IC50 was 100 to 1000 nM on IRAK1 and no more than 100 nM at IRAK4.

As to `O=C(/N=c1\[nH]c2cc(N3CCOCC3=O)ccc2n1[C@H]1CC[C@@H](CO)CC1)c1cccc(C(F)(F)F)c1` [Compound 122, cis-(E)-N-(1-(4-(hydroxymethyl)cyclohexyl)-5-(3-oxomorpholino)-1H-benzo[d]imidazol-2(3H)-ylidene)-3-(trifluoromethyl)benzamide], the IC50 at IRAK1 and on IRAK4 was no more than 100 nM each time.

`O=C(/N=c1\[nH]c2cc(N3CCOCC3=O)ccc2n1[C@H]1CC[C@@H](CO)CC1)c1cccc(C(F)F)c1` [Compound 123, cis-(E)-3-(difluoromethyl)-N-(1-(4-(hydroxymethyl)cyclohexyl)-5-(3-oxomorpholino)-1H-benzo[d]imidazol-2(3H)-ylidene)benzamide]: the 50% inhibitory concentration (IC50) on IRAK1 and on IRAK4 was no more than 100 nM throughout.

Regarding `CC(C)(C)OC(=O)N1CCC(n2/c(=N/C(=O)c3cccc(C(F)(F)F)c3)[nH]c3cc(N4CCOCC4=O)ccc32)CC1` [Compound 126, (E)-tert-butyl 4-(5-(3-oxomorpholino)-2-((3-(trifluoromethyl)benzoyl)imino)-2,3-dihydro-1H-benzo[d]imidazole-1-yl)piperidine-1-carboxylate], the values for the IC50 at IRAK1 and on IRAK4 were greater than 1000 nM and no more than 100 nM, respectively.

As to `CC(C)(C)OC(=O)N1CCC(n2/c(=N/C(=O)c3cccc(C(F)F)c3)[nH]c3cc(N4CCOCC4=O)ccc32)CC1` [Compound 127, (E)-tert-butyl 4-(2-((3-(difluoromethyl)benzoyl)imino)-5-(3-oxomorpholino)-2,3-dihydro-1H-benzo[d]imidazole-1-yl)piperidine-1-carboxylate], the concentration for half-maximal inhibition (IC50) on IRAK1 is 100 to 1000 nM; at IRAK4 it was no more than 100 nM.

As to `O=C(/N=c1\[nH]c2cc(N3CCOCC3=O)ccc2n1C1CCNCC1)c1cccc(C(F)(F)F)c1` [Compound 128, (E)-N-(5-(3-oxomorpholino)-1-(piperidin-4-yl)-1H-benzo[d]imidazole-2(3H)-ylidene)-3-(trifluoromethyl)benzamide hydrochloride], the IC50 at IRAK1 is greater than 1000 nM; at IRAK4 it was no more than 100 nM.

Consider `O=C(/N=c1\[nH]c2cc(N3CCOCC3=O)ccc2n1C1CCNCC1)c1cccc(C(F)F)c1` [Compound 129, (E)-3-(difluoromethyl)-N-(5-(3-oxomorpholino)-1-(piperidin-4-yl)-1H-benzo[d]imidazole-2(3H)-ylidene)benzamide hydrochloride], for which the IC50 at IRAK1 was 100 to 1000 nM; at IRAK4, no more than 100 nM.

As to `CC(=O)N1CCC(n2/c(=N/C(=O)c3cccc(C(F)(F)F)c3)[nH]c3cc(N4CCOCC4=O)ccc32)CC1` [Compound 130, (E)-N-(1-(1-acetylpiperidin-4-yl)-5-(3-oxomorpholino)-1H-benzo[d]imidazole-2(3H)-ylidene)-3-(trifluoromethyl)benzamide], the IC50 at IRAK1 and on IRAK4 was no more than 100 nM in each case.

With `CC(=O)N1CCC(n2/c(=N/C(=O)c3cccc(C(F)F)c3)[nH]c3cc(N4CCOCC4=O)ccc32)CC1` [Compound 131, (E)-N-(1-(1-acetylpiperidin-4-yl)-5-(3-oxomorpholino)-1H-benzo[d]imidazole-2(3H)-ylidene)-3-(difluoromethyl)benzamide], the figures for the IC50 on IRAK1 and at IRAK4 were 100 to 1000 nM and no more than 100 nM, respectively.

Take `CS(=O)(=O)N1CCC(n2/c(=N/C(=O)c3cccc(C(F)(F)F)c3)[nH]c3cc(N4CCOCC4=O)ccc32)CC1` [Compound 132, (E)-N-(1-(1-(methylsulfonyl)piperidin-4-yl)-5-(3-oxomorpholino)-1H-benzo[d]imidazole-2(3H)-ylidene)-3-(trifluoromethyl)benzamide]: the IC50 on IRAK1 is 100 to 1000 nM; at IRAK4 it was no more than 100 nM.

As to `CS(=O)(=O)N1CCC(n2/c(=N/C(=O)c3cccc(C(F)F)c3)[nH]c3cc(N4CCOCC4=O)ccc32)CC1` [Compound 133, (E)-3-(difluoromethyl)-N-(1-(1-(methylsulfonyl)piperidin-4-yl)-5-(3-oxomorpholino)-1H-benzo[d]imidazole-2(3H)-ylidene)benzamide], the 50% inhibitory concentration (IC50) at IRAK1 and on IRAK4 was no more than 100 nM in each case.

For `CCNC(=O)N1CCC(n2/c(=N/C(=O)c3cccc(C(F)(F)F)c3)[nH]c3cc(N4CCOCC4=O)ccc32)CC1` [Compound 134, (E)-N-ethyl-4-(5-(3-oxomorpholino)-2-((3-(trifluoromethyl)benzoyl)imino)-2,3-dihydro-1H-benzo[d]imidazol-1-yl)piperidine-1-carboxamide], the IC50 was 100 to 1000 nM on IRAK1 and no more than 100 nM on IRAK4.

Consider `CCNC(=O)N1CCC(n2/c(=N/C(=O)c3cccc(C(F)F)c3)[nH]c3cc(N4CCOCC4=O)ccc32)CC1` [Compound 135, (E)-4-(2-((3-(difluoromethyl)benzoyl)imino)-5-(3-oxomorpholino)-2,3-dihydro-1H-benzo[d]imidazol-1-yl)-N-ethylpiperidine-1-carboxamide], for which the IC50 at IRAK1 and on IRAK4 was no more than 100 nM in each case.

Take `O=C(/N=c1\[nH]c2cc(N3CCOCC3=O)ccc2n1C1CCS(=O)(=O)CC1)c1cccc(C(F)(F)F)c1` [Compound 136, (E)-N-(1-(1,1-dioxidotetrahydro-2H-thiopyran-4-yl)-5-(3-oxomorpholino)-1H-benzo[d]imidazol-2(3H)-ylidene)-3-(trifluoromethyl)benzamide]: the IC50 on IRAK1 was 100 to 1000 nM; at IRAK4, no more than 100 nM.

As to `CC(C)Oc1cc2c(cc1N1CCOCC1=O)[nH]/c(=N\C(=O)c1cccc(C(F)F)c1)n2CCCO` [Compound 137, (E)-3-(difluoromethyl)-N-(1-(3-hydroxypropyl)-6-isopropoxy-5-(3-oxomorpholino)-1H-benzo[d]imidazol-2(3H)-ylidene)benzamide], the IC50 on IRAK1 and on IRAK4 was no more than 100 nM throughout.
